Read-outs that look alike come from different tables or passages of the source.
Legend:
[1] = system: HIV-1 site-directed mutant strain Q148R; assay: Assay 1: inhibitory activity on HIV replication, Q148R mutant (MT4-LTR-EGFP cells); assay type: cell-based; conditions: Human immunodeficiency virus 1, 72 h, read-out: Q148R EC50
Excerpt: (§1) Assay 1—Inhibitory Activity on HIV Replication Wild Type, N155H Mutant, and Q148R Mutant
(§2) MT4-LTR-enhanced green fluorescent protein (EGFP) cells were obtained by transfecting MT4 cells with a selectable construct encompassing the coding sequences for the HIV LTR as a promoter for the expression of EGFP and subsequent selection of permanently transfected cells. MT4-cytomegalovirus (CMV)-EGFP cells were obtained by selection for permanently transformed MT4 cells with a CMV-EGFP reporter gene. Cell lines were maintained in RPMI 1640 medium supplemented with 10% heat-inactivated fetal calf serum, 2 mM L-glutamine, 0.1% NaHCO3, and antibiotics (0.02% gentamicin and 0.8% G418) and incubated in a humidified incubator with a 5% CO2 atmosphere at 37° C.
(§3) N155H and Q148R mutant Integrase coding sequences were constructed in the pUC19-5′HXB2D vector (XbaI-SalI fragment of pHXB2D), containing the HIV-1 clone HXB2D IN coding sequence, by using a QuikChange site-directed mutagenesis kit (Stratagene, La Jolla, Calif.) and high-performance liquid chromatography-purified primers (Genset Oligos, La Jolla, Calif.). Altered plasmid sequences were confirmed by dideoxyribose sequencing.
(§4) For generation of site directed mutant (SDM) virus stocks, MT4 cells were subcultured at a density of 250,000 cells/ml on the day before transfection. Cells were pelleted and resuspended in phosphate-buffered saline at a concentration of 3.1×10^6 cells/ml. A 0.8-ml portion ([…]) was used for each transfection. Transfections were performed with a Bio-Rad Gene Pulser (Bio-Rad, Hercules, Calif.) with 0.4-cm electrode cuvettes (Bio-Rad). Cells were electroporated with 10 μg of SalI-linearized pUC19-3′HXB2D (SalI-XbaI fragment of pHXB2D) and 5 μg of SalI-digested SDM at 250 μF and 300 V, followed by a 30-min incubation at room temperature. Ten milliliters of fresh culture medium was then added to the suspension of transfected cells, and incubation was performed at 37° C. in a humidified atmosphere with 5% CO2. Cell cultures were monitored for the appearance of cytopathic effect (CPE). At virus breakthrough (full CPE), culture supernatant was typically harvested by centrifugation at 8 to 10 days after transfection and was stored at −80° C. for subsequent drug susceptibility determination.
(§5) The antiviral activity of different inhibitors was determined in a cell-based HIV-1 replication assay. MT4-LTR-EGFP cells (150,000 cells/ml) were infected with HIV-1 (IIIB or site-directed mutant strains N155H or Q148R; multiplicity of infection [MOI] of 0.0025) in the presence or absence of inhibitor. After 3 days of incubation, the inhibition of HIV replication was quantified by measuring EGFP fluorescence, and expressed as the inhibitor concentration required for 50% inhibition of HIV-1 replication in cell culture (IIIB EC50—see Table 1).

[2] = system: HIV-1 site-directed mutant strain N155H; assay: Assay 1: inhibitory activity on HIV replication, N155H mutant (MT4-LTR-EGFP cells); assay type: cell-based; conditions: Human immunodeficiency virus 1, 72 h, read-out: N155H EC50
Excerpt: as §1, §2, §3, §4, §5

HIV-1 LAI (IIIB) = assay: Assay 3: inhibitory activity on HIV replication wild type in the presence of human serum; assay type: cell-based; conditions: Human immunodeficiency virus 1, IIIB, 96 h; in the presence of 50% human serum, 4 days, resazurin cell viability
Method: Assay 3—Inhibitory Activity on HIV Replication Wild Type in the Presence of Human Serum
For the Antiviral assay in the presence of 50% human serum MT-4-LTR-EGFP cells were infected with HIV-1 LAI (IIIB) at a MOI of 0.001 to 0.01 CCID50/cell in RPMI1640 medium. Following 1 h of incubation, cells were washed and plated into a 96-well plate containing serial dilutions of compound in the presence of 10% fetal calf serum (FCS), or 50% human serum. After 4 days incubation, the EC50 in the presence of 50% human serum (EC50/HS—see Table 1) was determined by a cell viability assay using resazurin (as described by Fields, R. D., and M. V. Lancaster (1993) Am. Biotechnol. Lab. 11:48-50).

HIV-1 IIIB = assay: Assay 1: inhibitory activity on HIV replication, wild type (MT4-LTR-EGFP cells); assay type: cell-based; conditions: Human immunodeficiency virus 1, 72 h, 3 days, EGFP fluorescence
Excerpt: as §1, §2, §5

[3] = molecular target: recombinant HIV-1 integrase (Human immunodeficiency virus type 1 group M subtype B (isolate HXB2) (HIV-1), UniProt P04585); assay: Assay 4: 3dQ assay, inhibition of HIV integrase mediated 3'-processing; assay type: biochemical
Method: The inhibition of HIV integrase mediated 3′-processing was determined in a biochemical assay. For this a short (˜20 bp) double stranded U5 LTR substrate was generated by hybridization of 5 μM 5′-[…]-3′-alx488 (SEQ ID 1) with 7 μM dabcyl-5′-[…]-3′ (SEQ ID 2) in 10 mM Tris pH 8.0, 100 mM NaCl (heating to 95° C. and gradually cooling over 30′ to RT). Integrase inhibition was determined by incubation of 150 nM recombinant HIV-1 integrase, 100 nM recombinant LEDGF and 50 nM U5 LTR substrate in reaction buffer (25 mM MOPS pH7.2, 10 mM DTT, 10 mM MgCl2, 15 mM potassium glutamate and 2.5% DMSO) in the presence or absence of different concentrations test compounds. After 2 h at 37° C. reactions were stopped by adding ⅕ volumes of 0.5% SDS and fluorescence was measured (excitation at 488 nm, emission at 538 nm) and expressed as the inhibitor concentration required for 50% inhibition of the HIV integrase (IC50—see Table 1).

[4] = Assay 2: cellular cytotoxic activity; assay type: cell-based; conditions: human, mock-infected MT4-CMV-EGFP cells, EGFP fluorescence
Excerpt: MT4-LTR-enhanced green fluorescent protein (EGFP) cells were obtained by transfecting MT4 cells with a selectable construct encompassing the coding sequences for the HIV LTR as a promoter for the expression of EGFP and subsequent selection of permanently transfected cells. MT4-cytomegalovirus (CMV)-EGFP cells were obtained by selection for permanently transformed MT4 cells with a CMV-EGFP reporter gene. Cell lines were maintained in RPMI 1640 medium supplemented with 10% heat-inactivated fetal calf serum, 2 mM L-glutamine, 0.1% NaHCO3, and antibiotics (0.02% gentamicin and 0.8% G418) and incubated in a humidified incubator with a 5% CO2 atmosphere at 37° C. Assay 2—Cellular Cytotoxic Activity The cytotoxicity of inhibitors was determined in parallel to the experiments under assay 1 on mock-infected MT4-CMV-EGFP cells (150,000 cells/ml) cultured in the presence or absence of different concentrations of compounds of formula I. After 3 days of incubation, inhibition of cell proliferation was quantified by measuring the EGFP fluorescence and expressed as the compound concentration that inhibits cell growth by 50% (CC50—see Table 1).

[5] = 3'-processing, 150 nM integrase, 100 nM LEDGF, 50 nM U5 LTR substrate, 2 h at 37° C., read-out: IC50

## O=C1NCCCCCCNc2nc(c(O)c3ncccc23)C(=O)NCc2ccc(F)cc21 [Compound 1]
[1]
  EC50: 350 nM
[2]
  EC50: 420 nM
HIV-1 LAI (IIIB)
  EC50: 35 nM
HIV-1 IIIB
  EC50: 17 nM
[3]; [5]
  IC50: 950 nM
[4]
  CC50 at 3 days: 20700 nM

## O=C1NCCCNc2nc(c(O)c3ncccc23)C(=O)NCc2ccc(F)cc21 [Compound 2]
[1]
  EC50: 36700 nM
HIV-1 IIIB
  EC50: 8900 nM
[3]
  IC50: 68000 nM
[4]
  CC50 at 3 days: 61000 nM

## O=C1NCCCCNc2nc(c(O)c3ncccc23)C(=O)NCc2ccc(F)cc21 [Compound 3]
[1]
  EC50: 28000 nM
HIV-1 IIIB
  EC50: 1060 nM
[4]
  CC50 at 3 days: > 98000 nM

## O=C1NCCCCCNc2nc(c(O)c3ncccc23)C(=O)NCc2ccc(F)cc21 [Compound 4]
[1]
  EC50: 7200 nM
[2]
  EC50: 1900 nM
HIV-1 LAI (IIIB)
  EC50: 130 nM
HIV-1 IIIB
  EC50: 71 nM
[4]
  CC50 at 3 days: > 31000 nM

## O=C1NCCCCCCCNc2nc(c(O)c3ncccc23)C(=O)NCc2ccc(F)cc21 [Compound 5]
[1]
  EC50: 440 nM
[2]
  EC50: 390 nM
HIV-1 LAI (IIIB)
  EC50: 51 nM
HIV-1 IIIB
  EC50: 17 nM
[3]; [5]
  IC50: 1000 nM
[4]
  CC50 at 3 days: 7700 nM

## CN1c2nc(c(O)c3ncccc23)C(=O)NCc2ccc(F)cc2C(=O)NCCCCCS1(=O)=O [Compound 6]
[1]
  EC50: 8 nM
[2]
  EC50: 83 nM
HIV-1 LAI (IIIB)
  EC50: 3 nM
HIV-1 IIIB
  EC50: 4 nM
[3]; [5]
  IC50: 250 nM
[4]
  CC50 at 3 days: 27700 nM

## CN1c2nc(c(O)c3ncccc23)C(=O)NCc2ccc(F)cc2C(=O)NCCCCS1(=O)=O [Compound 7]
[1]
  EC50: 20 nM
[2]
  EC50: 260 nM
HIV-1 LAI (IIIB)
  EC50: 3 nM
HIV-1 IIIB
  EC50: 4 nM
[3]; [5]
  IC50: 360 nM
[4]
  CC50 at 3 days: 13300 nM

## O=C1NCCCCN2CCN(CC2)c2nc(c(O)c3ncccc23)C(=O)NCc2ccc(F)cc21 [Compound 8]
[1]
  EC50: 850 nM
[2]
  EC50: 1900 nM
HIV-1 LAI (IIIB)
  EC50: 18 nM
HIV-1 IIIB
  EC50: 18 nM
[3]; [5]
  IC50: 1200 nM
[4]
  CC50 at 3 days: 3100 nM

## O=C1NCCCN2CCN(CC2)c2nc(c(O)c3ncccc23)C(=O)NCc2ccc(F)cc21 [Compound 9]
[1]
  EC50: 460 nM
[2]
  EC50: 1510 nM
HIV-1 LAI (IIIB)
  EC50: 25 nM
HIV-1 IIIB
  EC50: 17 nM
[3]; [5]
  IC50: 1600 nM
[4]
  CC50 at 3 days: 43000 nM

## O=C1NCc2ccc(F)cc2OCCCCC(=O)N2CCN(CC2)c2nc1c(O)c1ncccc21 [Compound 10]
[1]
  EC50: 39 nM
[2]
  EC50: 110 nM
HIV-1 LAI (IIIB)
  EC50: 27 nM
HIV-1 IIIB
  EC50: 3 nM
[4]
  CC50 at 3 days: > 24000 nM

## CN1c2nc(c(O)c3ncccc23)C(=O)NCc2ccc(F)cc2OCCCCS1(=O)=O [Compound 11]
[1]
  EC50: 24 nM
[2]
  EC50: 310 nM
HIV-1 LAI (IIIB)
  EC50: 16 nM
HIV-1 IIIB
  EC50: 5 nM
[4]
  CC50 at 3 days: > 24000 nM

## CN1c2nc(c(O)c3ncccc23)C(=O)NCc2ccc(F)cc2OCCCCCS1(=O)=O [Compound 12]
[1]
  EC50: 12 nM
[2]
  EC50: 170 nM
HIV-1 LAI (IIIB)
  EC50: 40 nM
HIV-1 IIIB
  EC50: 1 nM
[3]; [5]
  IC50: 200 nM
[4]
  CC50 at 3 days: > 98000 nM
